Experimental data published in patent US20110028566A1, “COMPOSITIONS AND PRODUCTS CONTAINING CYCLOALIPHATIC DIOL ANTIMICROBIAL AGENTS AND METHODS OF USING THE COMPOSITIONS AND PRODUCTS” (EASTMAN CHEMICAL COMPANY, priority 2009, published 2011).

Tests used:
Experiment in all cases: Microbial challenge testing in BPW
Type in all cases: cell-based
Pseudomonas aeruginosa = tested on: Pseudomonas aeruginosa
Method: (§1) The microorganisms used in challenge tests are given in Table 3, designated as either ATCC (American Type Culture Collection) or wild type. These wild type organisms were problematic organisms previously isolated from chemical products. In the description for each organism, the bacteria are indicated as either GN (Gram negative) or GP (Gram positive).
(§2) All of the microorganisms were grown in Tryptose Soy Broth (TSB), DIFCO™ available from Becton, Dickinson and Company, containing 1% dextrose. Aspergillus niger and Candida albicans were incubated at 22° C.±2° C. for at least 96 hours. All bacteria were incubated at 35° C.±2° C. in a humidified incubator for at least 96 hours.
(§3) The following procedure was followed to determine the amount of each challenge material (inoculum broth) required to produce a 10^8 cfu/mL challenge, which is equivalent to a final test-sample microbial concentration of 10^5 to 10^6 cfu (colony-forming units)/mL.
(§4) Using a sterile serological pipette, 1 mL of the growth from each TSB culture was transferred into tubes containing 9 mL phosphate buffer (pH 7.2) and mixed thoroughly. This process was repeated to make serial 1:10 dilutions. Then 0.1 mL of each sample and dilution was inoculated onto agar plates to produce the equivalent of a further 1:10 dilution. C. albicans and A. niger were inoculated onto SDA and bacteria were inoculated onto Plate Count Agar (PCA), DIFCO™ available from Becton, Dickinson and Company. The 0.1 mL aliquots were evenly distributed on the plates using the spread-plate technique. The spread-plate technique is performed by spreading the aliquot over the entire plate surface using a sterile spreading rod while rotating the plate with a rotary auto-plater. After the inoculum was absorbed completely, each plate was inverted and incubated (fungi at 22° C.±2° C. and bacteria at 35° C.±2° C.).
(§5) After incubation for at least 48 hours, colonies that had developed on the agar plates were counted and recorded with the corresponding dilution. If counting had to be delayed temporarily, plates were refrigerated, preferably no more than 24 hours, until they could be counted. The number of cfu/mL was determined by multiplying the count by the dilution factor for that particular plate.
(§6) Turbidity in Nepholemetric Turbidity Units (NTU) was measured for each serial dilution using the HF-Micro 100 Model Turbidimeter. For each microorganism, the plate counts were compared to the turbidity readings.
(§7) Control substrates (“broth alone”) were prepared for each microorganism separately in triplicate by adding 13.5 mL of BPW (pH 7.0) containing 1% (w/v) dextrose to each 20-mL glass tube; then adding 1.5 mL challenge material to produce a final concentration at time zero of 10^5 to 10^6 cfu/mL and a total volume of 15 mL.
(§8) Test sample substrates were prepared containing each test material (1,4-CHDM, etc) or combination of test materials at the concentrations shown in Tables 5 and 6. Sample substrates were prepared in triplicate, except those substrates containing PE or CG which were prepared in duplicate. Substrates were prepared by adding BPW containing 1% (w/v) dextrose to each 20-mL glass tube, then adding the test material in the amount appropriate to achieve the desired weight/volume percent (g/100 mL) and to obtain a total volume of BPW with dextrose and test material of 13.5 mL. Then 1.5 mL challenge material was added to produce a final concentration at time zero of 10^5 to 10^6 cfu/mL of the respective organism and a total test sample substrate volume of 15 mL.
(§9) After mixing, all challenged substrates were incubated at 35° C.±2° C. for 14 days and then at ambient room temperature.

Proteus vulgaris = tested on: Proteus vulgaris
Method: as §1, §2, §3, §4, §5, §6, §7, §8, §9

[1] = tested on: Staphylococcus epidermidis
Method: as §1, §2, §3, §4, §5, §6, §7, §8, §9

Staphylococcus aureus = tested on: Staphylococcus aureus
Method: as §1, §2, §3, §4, §5, §6, §7, §8, §9

Burkholderia cepacia = tested on: Burkholderia cepacia
Method: as §1, §2, §3, §4, §5, §6, §7, §8, §9

Candida albicans = tested on: Candida albicans
Method: as §1, §2
Aspergillus niger and Candida albicans were also grown on Sabouraud dextrose agar (SDA) at 22° C.±2° C. for 7 to 14 days or until full sporulation was achieved.
as §3, §4, §5, §6
On the day of challenge, the Candida albicans inoculum broth was poured through non-absorbent sterile gauze and centrifuged. The […] was then diluted with phosphate buffer (pH 7.2) until the desired turbidity was reached. Using a hemocytometer, a determination was made whether the challenge contained the desired concentration. Dilutions were made through 1.0×10^8 and three SDA spread plates were inoculated with 0.1 mL of each dilution.
as §7
Test sample substrates were prepared containing each test material (1,4-CHDM, etc) or combination of test materials at the concentrations shown in Tables 5 and 6.

OCC1CCCC(CO)C1 (centres unmarked) [1,3-CHDM]
Grade code P. aeruginosa (Pseudomonas aeruginosa; 1.25%, 13 days incubation): 4 (1001 to 10,000 colonies (thus 10,000 cfu/mL to 100,000 cfu/mL))
Grade code P. aeruginosa (Pseudomonas aeruginosa; 1.25%, 30 days incubation): 4 (1001 to 10,000 colonies (thus 10,000 cfu/mL to 100,000 cfu/mL))
Grade code P. aeruginosa (Pseudomonas aeruginosa; 2.5%, 3 days incubation): 4 (1001 to 10,000 colonies (thus 10,000 cfu/mL to 100,000 cfu/mL))
Grade code P. aeruginosa (Pseudomonas aeruginosa; 2.5%, 13 days incubation): 4 (1001 to 10,000 colonies (thus 10,000 cfu/mL to 100,000 cfu/mL))
Grade code P. aeruginosa (Pseudomonas aeruginosa; 2.5%, 30 days incubation): 4 (1001 to 10,000 colonies (thus 10,000 cfu/mL to 100,000 cfu/mL))
Grade code P. vulqaris (Proteus vulgaris; 0.5%, 3 days incubation): 5 (More than 10,000 colonies estimated (thus >100,000 cfu/mL))
Grade code P. vulqaris (Proteus vulgaris; 0.5%, 13 days incubation): 5 (More than 10,000 colonies estimated (thus >100,000 cfu/mL))
Grade code P. vulqaris (Proteus vulgaris; 0.5%, 30 days incubation): 5 (More than 10,000 colonies estimated (thus >100,000 cfu/mL))
Grade code P. vulqaris (Proteus vulgaris; 1.25%, 3 days incubation): 5 (More than 10,000 colonies estimated (thus >100,000 cfu/mL))
Grade code P. vulqaris (Proteus vulgaris; 1.25%, 13 days incubation): 4 (1001 to 10,000 colonies (thus 10,000 cfu/mL to 100,000 cfu/mL))
Grade code P. vulqaris (Proteus vulgaris; 1.25%, 30 days incubation): 4 (1001 to 10,000 colonies (thus 10,000 cfu/mL to 100,000 cfu/mL))
Grade code S. epidermidis ([1]; 0.5%, 3 days incubation): 4 (1001 to 10,000 colonies (thus 10,000 cfu/mL to 100,000 cfu/mL))
Grade code S. epidermidis ([1]; 0.5%, 13 days incubation): 4 (1001 to 10,000 colonies (thus 10,000 cfu/mL to 100,000 cfu/mL))
Grade code S. epidermidis ([1]; 0.5%, 30 days incubation): 4 (1001 to 10,000 colonies (thus 10,000 cfu/mL to 100,000 cfu/mL))
Grade code S. epidermidis ([1]; 1.25%, 3 days incubation): 4 (1001 to 10,000 colonies (thus 10,000 cfu/mL to 100,000 cfu/mL))
Grade code S. epidermidis ([1]; 1.25%, 13 days incubation): 3.7
Grade code S. epidermidis ([1]; 1.25%, 30 days incubation): 4 (1001 to 10,000 colonies (thus 10,000 cfu/mL to 100,000 cfu/mL))
Grade code S. epidermidis ([1]; 2.5%, 3 days incubation): 4 (1001 to 10,000 colonies (thus 10,000 cfu/mL to 100,000 cfu/mL))
Grade code S. epidermidis ([1]; 2.5%, 13 days incubation): 3 (101 to 1000 colonies (thus 1000 to 10,000 cfu/mL))
Grade code S. epidermidis ([1]; 2.5%, 30 days incubation): 4 (1001 to 10,000 colonies (thus 10,000 cfu/mL to 100,000 cfu/mL))
Grade code S. aureus (Staphylococcus aureus; 0.5%, 3 days incubation): 4 (1001 to 10,000 colonies (thus 10,000 cfu/mL to 100,000 cfu/mL))
Grade code S. aureus (Staphylococcus aureus; 0.5%, 14 days incubation): 4 (1001 to 10,000 colonies (thus 10,000 cfu/mL to 100,000 cfu/mL))
Grade code S. aureus (Staphylococcus aureus; 0.5%, 30 days incubation): 4 (1001 to 10,000 colonies (thus 10,000 cfu/mL to 100,000 cfu/mL))
Grade code S. aureus (Staphylococcus aureus; 1.25%, 3 days incubation): 4 (1001 to 10,000 colonies (thus 10,000 cfu/mL to 100,000 cfu/mL))
Grade code S. aureus (Staphylococcus aureus; 1.25%, 14 days incubation): 4 (1001 to 10,000 colonies (thus 10,000 cfu/mL to 100,000 cfu/mL))
Grade code S. aureus (Staphylococcus aureus; 1.25%, 30 days incubation): 4 (1001 to 10,000 colonies (thus 10,000 cfu/mL to 100,000 cfu/mL))
Grade code S. aureus (Staphylococcus aureus; 2.5%, 3 days incubation): 4 (1001 to 10,000 colonies (thus 10,000 cfu/mL to 100,000 cfu/mL))
Grade code S. aureus (Staphylococcus aureus; 2.5%, 14 days incubation): 4 (1001 to 10,000 colonies (thus 10,000 cfu/mL to 100,000 cfu/mL))
Grade code S. aureus (Staphylococcus aureus; 2.5%, 30 days incubation): 4 (1001 to 10,000 colonies (thus 10,000 cfu/mL to 100,000 cfu/mL))
Grade code B. cepacia (Burkholderia cepacia; 0.5%, 3 days incubation): 5 (More than 10,000 colonies estimated (thus >100,000 cfu/mL))
Grade code B. cepacia (Burkholderia cepacia; 0.5%, 14 days incubation): 5 (More than 10,000 colonies estimated (thus >100,000 cfu/mL))
Grade code B. cepacia (Burkholderia cepacia; 0.5%, 30 days incubation): 5 (More than 10,000 colonies estimated (thus >100,000 cfu/mL))
Grade code B. cepacia (Burkholderia cepacia; 1.25%, 3 days incubation): 4.7
Grade code B. cepacia (Burkholderia cepacia; 1.25%, 14 days incubation): 4.7
Grade code B. cepacia (Burkholderia cepacia; 1.25%, 30 days incubation): 4.7
Grade code B. cepacia (Burkholderia cepacia; 2.5%, 3 days incubation): 4 (1001 to 10,000 colonies (thus 10,000 cfu/mL to 100,000 cfu/mL))
Grade code B. cepacia (Burkholderia cepacia; 2.5%, 14 days incubation): 4 (1001 to 10,000 colonies (thus 10,000 cfu/mL to 100,000 cfu/mL))
Grade code B. cepacia (Burkholderia cepacia; 2.5%, 30 days incubation): 4 (1001 to 10,000 colonies (thus 10,000 cfu/mL to 100,000 cfu/mL))
Grade code C. albicans (Candida albicans; 0.5%, 3 days incubation): 4 (1001 to 10,000 colonies (thus 10,000 cfu/mL to 100,000 cfu/mL))
Grade code C. albicans (Candida albicans; 0.5%, 14 days incubation): 4 (1001 to 10,000 colonies (thus 10,000 cfu/mL to 100,000 cfu/mL))
Grade code C. albicans (Candida albicans; 0.5%, 30 days incubation): 4 (1001 to 10,000 colonies (thus 10,000 cfu/mL to 100,000 cfu/mL))
Grade code C. albicans (Candida albicans; 1.25%, 3 days incubation): 4 (1001 to 10,000 colonies (thus 10,000 cfu/mL to 100,000 cfu/mL))
Grade code C. albicans (Candida albicans; 1.25%, 14 days incubation): 4 (1001 to 10,000 colonies (thus 10,000 cfu/mL to 100,000 cfu/mL))
Grade code C. albicans (Candida albicans; 1.25%, 30 days incubation): 4 (1001 to 10,000 colonies (thus 10,000 cfu/mL to 100,000 cfu/mL))
Grade code C. albicans (Candida albicans; 2.5%, 3 days incubation): 4 (1001 to 10,000 colonies (thus 10,000 cfu/mL to 100,000 cfu/mL))
Grade code C. albicans (Candida albicans; 2.5%, 14 days incubation): 4 (1001 to 10,000 colonies (thus 10,000 cfu/mL to 100,000 cfu/mL))
Grade code C. albicans (Candida albicans; 2.5%, 30 days incubation): 4 (1001 to 10,000 colonies (thus 10,000 cfu/mL to 100,000 cfu/mL))
